Like-named read-outs stand apart in the source and are kept apart here.
Key:
STAT4 = molecular target: T1, STAT4 (Homo sapiens, UniProt Q14765); assay: Fluorescence polarization (FP) binding assay, STAT4
T1 sequence (Q14765 1-748): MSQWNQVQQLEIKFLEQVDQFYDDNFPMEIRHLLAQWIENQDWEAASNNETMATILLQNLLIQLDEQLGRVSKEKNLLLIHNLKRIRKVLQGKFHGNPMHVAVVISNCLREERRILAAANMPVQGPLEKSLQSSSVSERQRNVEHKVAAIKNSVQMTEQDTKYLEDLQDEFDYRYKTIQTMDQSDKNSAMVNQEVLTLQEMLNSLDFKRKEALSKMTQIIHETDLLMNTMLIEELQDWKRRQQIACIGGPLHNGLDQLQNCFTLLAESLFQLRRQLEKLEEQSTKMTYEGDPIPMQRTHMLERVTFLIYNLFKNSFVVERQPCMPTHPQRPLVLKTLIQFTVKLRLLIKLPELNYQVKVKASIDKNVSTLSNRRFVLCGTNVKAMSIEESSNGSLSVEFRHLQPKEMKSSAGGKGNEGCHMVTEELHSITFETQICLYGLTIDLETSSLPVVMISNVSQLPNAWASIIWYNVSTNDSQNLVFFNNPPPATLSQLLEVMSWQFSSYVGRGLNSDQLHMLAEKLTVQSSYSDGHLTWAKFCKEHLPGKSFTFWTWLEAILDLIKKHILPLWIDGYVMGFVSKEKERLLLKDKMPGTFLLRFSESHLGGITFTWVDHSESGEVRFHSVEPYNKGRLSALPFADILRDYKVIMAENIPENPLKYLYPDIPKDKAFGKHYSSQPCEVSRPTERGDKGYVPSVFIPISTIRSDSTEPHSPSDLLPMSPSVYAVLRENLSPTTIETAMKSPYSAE
Protocol: (§1) Ki values were calculated from IC50 values using the published equation.[2] […]
(§2) Table S2: Activities of 12 against STAT5 proteins in FP assays.
(§3) Fluorescence polarization assays
(§4) Fluorescence polarization assays were essentially carried out as previously described.[1] These assays quantitate to which extent a test compound is able to interfere with binding between a STAT protein and a fluorescein-labeled phosphotyrosine-containing peptide, which is known to bind to the SH2 domain of the respective STAT protein. The following protein […]
concentrations were used: 100 nM for STAT1, 150 nM for STAT3, 30 nM for STAT4, 180 nM for STAT5a, 90 nM for STAT5b and 105 nM for STAT6. All peptides were used at a concentration of 10 nM. The following peptides were used: 5 -carboxyfluorescein -GpYDKPHVL for STAT1; 5-carboxyfluorescein -GpYLPQTV-NH2 for STAT3; 5-carboxyfluorescein-GpYLPQNID-OH for STAT4; 5-carboxyfluorescein-GpYLVLDKW for STAT5a/b, and 5-carboxyfluorescein-GpYVPWQDLI-OH for STAT6. As a buffer system, 10 mM Tris (pH 8.0), 50 mM NaCl, 1 mM EDTA, 1 mM DTT, 0.1 % Nonidet P-40 substitute, and 2 % DMSO in water was used. All compounds tested were incubated for 1 h with the protein. Subsequently, the fluorescein-labeled peptide was added and the fluorescence polarization was measured with an Infinite F500 plate reader (Tecan) after another hour. IC50 values were converted to Ki-values using the published equation.[2] […]
3:2 solution was added . The solution was degassed by applying ultrasonic under vacuum for one minute four times. 14 mg of Pd(PPh3)4 (12 µmol, 5 mol %) were added and the solution was refluxed overnight. After cooling down, the mixture was extracted with ethyl acetate, washed with brine and dried over Na2SO4. The crude product was purified by flash column […]
Method 2: Synthesis of dibenzylphosphate esters
The corresponding phenol (1 eq.) was dissolved in 10 ml/mmol MeCN or DMF and CCl4 (5 eq.), DIPEA (2 eq.) and DMAP (0.1 eq.) were added. After cooling down to 0°C, dibenzyl phosphite (1.5 eq.) was added dropwise and stirring was continued at the same temperature. […]

STAT3 = STAT3 (Homo sapiens, UniProt P40763); assay: Fluorescence polarization (FP) binding assay, STAT3
Protocol: Table S1: Activities of test compounds against STAT5a and STAT5b in FP assays . Experiments were carried out in triplicate (n = 3) unless stated otherwise. n/a: not applicable.
[a]data taken from the literature.[1]
as §1, §2, §3, §4
concentrations were used: 100 nM for STAT1, 150 nM for STAT3, 30 nM for STAT4, 180 nM for STAT5a, 90 nM for STAT5b and 105 nM for STAT6. All peptides were used at a concentration of 10 nM. The following peptides were used: 5 -carboxyfluorescein -GpYDKPHVL for STAT1; 5-carboxyfluorescein -GpYLPQTV-NH2 for STAT3; 5-carboxyfluorescein-GpYLPQNID-OH for STAT4; 5-carboxyfluorescein-GpYLVLDKW for STAT5a/b, and 5-carboxyfluorescein-GpYVPWQDLI-OH for STAT6. As a buffer system, 10 mM Tris (pH 8.0), 50 mM NaCl, 1 mM EDTA, 1 mM DTT, 0.1 % Nonidet P-40 substitute, and 2 % DMSO in water was used. All compounds tested were incubated for 1 h with the protein. Subsequently, the fluorescein-labeled peptide was added and the fluorescence polarization was measured with an Infinite F500 plate reader (Tecan) after another hour. IC50 values were converted to Ki-values using the published equation.[2]

Chain of STAT3 (P40763 whole entry, species assumed): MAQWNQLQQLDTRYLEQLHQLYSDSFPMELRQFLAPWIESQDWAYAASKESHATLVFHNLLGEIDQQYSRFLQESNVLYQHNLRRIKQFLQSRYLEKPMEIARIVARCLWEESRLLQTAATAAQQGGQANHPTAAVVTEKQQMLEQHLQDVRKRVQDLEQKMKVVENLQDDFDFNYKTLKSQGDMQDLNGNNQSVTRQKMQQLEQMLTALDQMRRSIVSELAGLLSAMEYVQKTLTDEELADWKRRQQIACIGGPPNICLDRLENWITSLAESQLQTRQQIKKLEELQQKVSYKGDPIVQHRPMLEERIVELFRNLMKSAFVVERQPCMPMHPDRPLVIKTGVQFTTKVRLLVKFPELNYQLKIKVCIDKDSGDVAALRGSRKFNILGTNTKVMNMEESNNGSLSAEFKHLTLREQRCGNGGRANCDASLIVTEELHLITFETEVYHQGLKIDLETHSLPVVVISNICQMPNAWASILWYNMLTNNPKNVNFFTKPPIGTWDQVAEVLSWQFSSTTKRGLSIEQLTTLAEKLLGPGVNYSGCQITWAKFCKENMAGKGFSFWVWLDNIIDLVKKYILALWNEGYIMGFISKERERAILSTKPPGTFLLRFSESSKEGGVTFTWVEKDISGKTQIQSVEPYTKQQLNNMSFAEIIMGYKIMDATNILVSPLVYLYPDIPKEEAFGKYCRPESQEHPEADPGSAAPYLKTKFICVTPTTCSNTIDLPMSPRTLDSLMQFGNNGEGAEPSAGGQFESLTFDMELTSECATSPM

| IC50 (STAT4; FP assay) [µM] | Ki (STAT4; FP assay, Ki calculated from IC50 (n=3), read-out: STAT4 Ki) [µM] | IC50 (STAT3; FP assay) [µM] | Ki (STAT3; FP assay, Ki calculated from IC50 (n=3)) [µM] | Compound | Ki (STAT4) [µM] | inhibition at 200 µM (STAT3; read-out: STAT3 inhibition at 200 μM) [%] |
| --- | --- | --- | --- | --- | --- | --- |
|  |  |  |  | COc1cc(-c2cc(OP(=O)(O)O)cc(-c3cc(F)c(F)c(F)c3)c2)cc(OC)c1OC [6 b] | 39.7 ± 3 | 25 ± 3 |
| 99.3 ± 8 | 49.2 ± 4 | 145 ± 6.8 | 71.7 ± 3.4 | COc1cc(-c2cc(-c3cc(F)c(F)c(F)c3)cc(C(F)P(=O)(O)O)c2)cc(OC)c1OC (stereo not drawn) [compound 12] |  |  |

Source: article PMC9303812, “Asymmetrically Substituted m‐Terphenyl Phosphates Inhibit the Transcription Factor STAT5a” (Chembiochem, 2021)
